The conditions of data set [1]: at 25° C.
The test system of a further data set is tumor. To be noted: tumor bearing animals; cited from earlier work.

In the case of `C[C@]1(c2nc3c(C(N)=O)cccc3[nH]2)CCCN1` [ABT-888 Crystalline Form 1, 2-((R)-2-Methylpyrrolidin-2-yl)-1H-benzimidazole-4-carboxamide Crystalline Form 1], the “thermodynamic stability of crystalline form” value in data set [1] is “most thermodynamically stable crystalline form of ABT-888”.

For `C[C@]1(c2nc3c(C(N)=O)cccc3[nH]2)CCCN1` [ABT-888, 2-((R)-2-methylpyrrolidin-2-yl)-1H-benzimidazole-4-carboxamide], the tumor growth result in the data set with tumor is “limit tumor growth”.

These data come from patent US8835647B2, “2-((R)-2-methylpyrrolidin-2-yl)-1H-benzimidazole-4-carboxamide crystalline form 1” (AbbVie Inc., priority 2007, dated 2014).
